In patent US8470886B2, “Topical ibuprofen formulations” (NUVO Research Inc., priority 2009, dated 2013):
Counter-ions that a name gives are not always drawn.

Columns and labels:
[1] = cited from earlier work
[2] = Skin permeation of ibuprofen through porcine skin, Franz diffusion cells (finite dosing); format: in vitro ADME; settings: bar graphs FIG. 1-13
Experimental: “Enhancement ratio” (“ER”) as used herein is the ratio of a test result (e.g., ug/cm^2 accumulated dose of product) from a formulation comprising ibuprofen to the corresponding test result from a control composition comprising ibuprofen at the same concentration in the formulation.
“Ratio”, as it pertains to comparative flux values described herein, are calculated based on the cumulative amount of active (e.g. ibuprofen) delivered through the skin over a period of 4-60 hrs, preferably 24 hrs.
The permeation of ibuprofen through porcine skin from each of the present formulations was measured using Franz diffusion cells (“FDC”s). Porcine skin pieces are obtained from Lampire Biological Laboratories, Inc., Pipersville, Pa. Porcine skins were collected immediately following animal sacrifice, and the hairs were trimmed with clippers. Larger pieces of excess fat were removed with a filet knife. The skin was then trimmed to a set thickness of some 2 mm, cut into individual pieces, wrapped in aluminum foil, frozen, shipped, and stored at −78° C.
Prior to use, the skin pieces were allowed to thaw, in air, to room temperature. […]
Samples were drawn from the receptor wells at various times, as provided in the examples that follow. […] The concentrations of ibuprofen in the samples were measured using HPLC analysis using a C18 column and acetonitrile and water as the mobile phase. […]

pH of the formulation = format: physicochemical; settings: Table 20; single ingredient in water at its Ib949 wt %

SMILES	pH-water and ingredients (pH of the formulation)	further results
CC(C)Cc1ccc(C(C)C(=O)O)cc1 (racemic) [Ibuprofen, 2-(4-isobutylphenyl)propanoic acid]	–	Solubility in polar organic solvents ([1]; ethanol and acetone): readily soluble; Solubility in water ([1]; water): < 100 µg/mL
CC(C)Cc1ccc([C@H](C)C(=O)O)cc1 [(S) form, (S+)-ibuprofen]	–	Flux / permeation of ibuprofen, result in words [2]: no significant difference in flux
COC(=O)c1ccc(O)cc1 [MP]	5.72	–
CCCCCCCCCCCCOS(=O)(=O)[O-].[Na+] [Na Lauryl Sulfate]	7.97	–
CCCOC(=O)c1ccc(O)cc1 [PP]	6.13	–
CCOC(=O)CC(O)(CC(=O)OCC)C(=O)OCC [Triethyl Citrate]	3.72	–

The next lines start with results.

pH-water and ingredients (pH of the formulation)	SMILES	further results
7.31	CCO [Ethanol]	–
2.4	CC(O)C(=O)O (centres unmarked) [Lactic Acid]	–
6.97	CC(O)CO (centres unmarked) [PG]	–
4.32	CCOCCOCCO [Transcutol]	–
